The results in this text go back to ChEMBL document CHEMBL4330132, “5-Keto-3-cyano-2,4-diaminothiophenes as selective maternal embryonic leucine zipper kinase inhibitors” (Bioorg Med Chem Lett, 2019).

Assay [1] deals with Tyrosine-protein kinase ABL1 (Homo sapiens), P00519 [M351T]. The experiment in a line: Binding affinity to human phosphorylated ABL1 M351T mutant (S229 to K512 residues) expressed in mammalian expression system assessed as residual binding level at 1 uM by Kinomescan method relative to control.
Assay [2] has as its target Activin receptor type-2A (Homo sapiens) (UniProt P27037). The experiment in a line: Binding affinity to wild-type human ACVR2A (V171 to T499 residues) expressed in bacterial expression system assessed as residual binding level at 1 uM by Kinomescan method relative to control.
Assay [3] has as its target Activin receptor type-2B (Homo sapiens) (UniProt Q13705). The experiment in a line: Binding affinity to wild-type human ACVR2B (H169 to D504 residues) expressed in bacterial expression system assessed as residual binding level at 1 uM by Kinomescan method relative to control.
The target of assay [4] is Calcium/calmodulin-dependent protein kinase type II subunit alpha (Homo sapiens) (UniProt Q9UQM7). In words: Binding affinity to wild-type human partial length CAMK2A (M1 to K328 residues) expressed in bacterial expression system assessed as residual binding level at 1 uM by Kinomescan method relative to control.
Assay [5] has as its target Cyclin-dependent kinase-like 2 (Homo sapiens) (UniProt Q92772). In words: Binding affinity to wild-type human partial length CDKL2 (M1 to D327 residues) expressed in bacterial expression system assessed as residual binding level at 1 uM by Kinomescan method relative to control.
Assay [6] deals with Dual specificity protein kinase CLK2 (Homo sapiens) (UniProt P49760). In words: Binding affinity to wild-type human partial length CLK2 (D144 to R498 residues) expressed in bacterial expression system assessed as residual binding level at 1 uM by Kinomescan method relative to control.
Assay [7] has as its system Epidermal growth factor receptor (Homo sapiens), P00533 [UNDEFINED MUTATION]. The experiment in a line: Binding affinity to human partial length EGFR L747-E749del/A750P mutant expressed in bacterial expression system assessed as residual binding level at 1 uM by Kinomescan method relative to control.
For assay [8], the target named is Tyrosine-protein kinase Fes/Fps (Homo sapiens) (UniProt P07332). The experiment in a line: Binding affinity to wild-type human partial length FES (I527 to R822 residues) expressed in bacterial expression system assessed as residual binding level at 1 uM by Kinomescan method relative to control.
For assay [9], the target named is Tyrosine-protein kinase Fyn (Homo sapiens) (UniProt P06241). The experiment in a line: Binding affinity to wild-type human partial length FYN (T243 to L534 residues) expressed in bacterial expression system assessed as residual binding level at 1 uM by Kinomescan method relative to control.
Assay [10] deals with Cyclin-G-associated kinase (Homo sapiens) (UniProt O14976). In words: Binding affinity to wild-type human partial length GAK (G13 to Y338 residues) expressed in bacterial expression system assessed as residual binding level at 1 uM by Kinomescan method relative to control.
Assay [11] addresses Tyrosine-protein kinase JAK1 (Homo sapiens) (UniProt P23458). In words: Binding affinity to wild-type human partial length JAK1 JH2 pseudokinase domain (R537 to D855 residues) expressed in mammalian expression system assessed as residual binding level at 1 uM by Kinomescan method relative to control.
Assay [12] has as its system Mast/stem cell growth factor receptor Kit (Homo sapiens), P10721 [L576P]. In words: Binding affinity to human partial length KIT L576P mutant (Y545 to D952 residues) expressed in bacterial expression system assessed as residual binding level at 1 uM by Kinomescan method relative to control.
The target in assay [13] is Mitogen-activated protein kinase 12 (Homo sapiens) (UniProt P53778). In words: Binding affinity to wild-type human full length p38-gamma (M1 to L367 residues) expressed in mammalian expression system assessed as residual binding level at 1 uM by Kinomescan method relative to control.
Assay [14] addresses Phosphatidylinositol 5-phosphate 4-kinase type-2 gamma (Homo sapiens) (UniProt Q8TBX8). In words: Binding affinity to wild-type human partial length PIP5K2C (M1 to A421 residues) expressed in mammalian expression system assessed as residual binding level at 1 uM by Kinomescan method relative to control.
Assay [15] concerns the target Protein kinase C epsilon type (Homo sapiens) (UniProt Q02156). The experiment in a line: Binding affinity to wild-type human partial length PRKCE (A378 to P737 residues) expressed in mammalian expression system assessed as residual binding level at 1 uM by Kinomescan method relative to control.
Assay [16] concerns the target Serine/threonine-protein kinase SIK3 (Homo sapiens) (UniProt Q9Y2K2). In words: Binding affinity to wild-type human partial length QSK (A90 to L395 residues) expressed in mammalian expression system assessed as residual binding level at 1 uM by Kinomescan method relative to control.
The target in assay [17] is Receptor-interacting serine/threonine-protein kinase 2 (Homo sapiens) (UniProt O43353). The experiment in a line: Binding affinity to wild-type human partial length RIPK2 (M1 to K310 residues) expressed in bacterial expression system assessed as residual binding level at 1 uM by Kinomescan method relative to control.
For assay [18], the target named is Ribosomal protein S6 kinase alpha-6 (Homo sapiens) (UniProt Q9UK32). The experiment in a line: Binding affinity to wild-type human partial length C-terminal RSK4 kinase domain 2 (I401 to Y711 residues) expressed in bacterial expression system assessed as residual binding level at 1 uM by Kinomescan method relative to control.
Assay [19] concerns the target STE20-like serine/threonine-protein kinase (Homo sapiens) (UniProt Q9H2G2). In words: Binding affinity to wild-type human partial length SLK (S14 to A307 residues) expressed in bacterial expression system assessed as residual binding level at 1 uM by Kinomescan method relative to control.
Assay [20] addresses SRSF protein kinase 1 (Homo sapiens) (UniProt Q96SB4). The experiment in a line: Binding affinity to wild-type human full length SRPK1 (M1 to S655 residues) expressed in bacterial expression system assessed as residual binding level at 1 uM by Kinomescan method relative to control.
Assay [21] deals with STE20/SPS1-related proline-alanine-rich protein kinase (Homo sapiens) (UniProt Q9UEW8). The experiment in a line: Binding affinity to wild-type human partial length STK39 (P43 to I357 residues) expressed in mammalian expression system assessed as residual binding level at 1 uM by Kinomescan method relative to control.
Assay [22] addresses Serine/threonine-protein kinase TAO2 (Homo sapiens) (UniProt Q9UL54). The experiment in a line: Binding affinity to wild-type human partial length TAOK2 (M1 to A320 residues) expressed in mammalian expression system assessed as residual binding level at 1 uM by Kinomescan method relative to control.
The target in assay [23] is TGF-beta receptor type-1 (Homo sapiens) (UniProt P36897). The experiment in a line: Binding affinity to wild-type human partial length TGFBR1 (D179 to M503 residues) expressed in bacterial expression system assessed as residual binding level at 1 uM by Kinomescan method relative to control.
Assay [24] addresses Serine/threonine-protein kinase tousled-like 2 (Homo sapiens) (UniProt Q86UE8). The experiment in a line: Binding affinity to wild-type human partial length TLK2 (E424 to N749 residues) expressed in bacterial expression system assessed as residual binding level at 1 uM by Kinomescan method relative to control.

Sequence of SRSF protein kinase 1 (Homo sapiens) (Q96SB4 whole entry, the tested form may be a part): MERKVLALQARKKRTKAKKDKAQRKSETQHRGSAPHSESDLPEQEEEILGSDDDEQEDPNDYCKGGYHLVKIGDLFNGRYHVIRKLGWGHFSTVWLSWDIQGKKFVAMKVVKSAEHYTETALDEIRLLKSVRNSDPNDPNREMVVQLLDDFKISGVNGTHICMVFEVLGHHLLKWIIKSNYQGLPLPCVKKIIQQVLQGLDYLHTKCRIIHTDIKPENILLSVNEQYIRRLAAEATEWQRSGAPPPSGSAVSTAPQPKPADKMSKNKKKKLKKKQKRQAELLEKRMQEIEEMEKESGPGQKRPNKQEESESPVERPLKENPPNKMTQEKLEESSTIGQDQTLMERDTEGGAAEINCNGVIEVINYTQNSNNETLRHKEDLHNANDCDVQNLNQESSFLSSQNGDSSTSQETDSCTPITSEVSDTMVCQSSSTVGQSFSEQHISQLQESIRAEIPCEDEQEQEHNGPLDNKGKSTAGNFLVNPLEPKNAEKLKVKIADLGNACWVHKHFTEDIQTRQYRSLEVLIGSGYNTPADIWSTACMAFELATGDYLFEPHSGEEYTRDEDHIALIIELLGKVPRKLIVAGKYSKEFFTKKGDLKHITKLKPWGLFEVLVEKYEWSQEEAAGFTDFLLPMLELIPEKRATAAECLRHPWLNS
Sequence of Serine/threonine-protein kinase TAO2 (Homo sapiens) (Q9UL54 whole entry, the tested form may be a part): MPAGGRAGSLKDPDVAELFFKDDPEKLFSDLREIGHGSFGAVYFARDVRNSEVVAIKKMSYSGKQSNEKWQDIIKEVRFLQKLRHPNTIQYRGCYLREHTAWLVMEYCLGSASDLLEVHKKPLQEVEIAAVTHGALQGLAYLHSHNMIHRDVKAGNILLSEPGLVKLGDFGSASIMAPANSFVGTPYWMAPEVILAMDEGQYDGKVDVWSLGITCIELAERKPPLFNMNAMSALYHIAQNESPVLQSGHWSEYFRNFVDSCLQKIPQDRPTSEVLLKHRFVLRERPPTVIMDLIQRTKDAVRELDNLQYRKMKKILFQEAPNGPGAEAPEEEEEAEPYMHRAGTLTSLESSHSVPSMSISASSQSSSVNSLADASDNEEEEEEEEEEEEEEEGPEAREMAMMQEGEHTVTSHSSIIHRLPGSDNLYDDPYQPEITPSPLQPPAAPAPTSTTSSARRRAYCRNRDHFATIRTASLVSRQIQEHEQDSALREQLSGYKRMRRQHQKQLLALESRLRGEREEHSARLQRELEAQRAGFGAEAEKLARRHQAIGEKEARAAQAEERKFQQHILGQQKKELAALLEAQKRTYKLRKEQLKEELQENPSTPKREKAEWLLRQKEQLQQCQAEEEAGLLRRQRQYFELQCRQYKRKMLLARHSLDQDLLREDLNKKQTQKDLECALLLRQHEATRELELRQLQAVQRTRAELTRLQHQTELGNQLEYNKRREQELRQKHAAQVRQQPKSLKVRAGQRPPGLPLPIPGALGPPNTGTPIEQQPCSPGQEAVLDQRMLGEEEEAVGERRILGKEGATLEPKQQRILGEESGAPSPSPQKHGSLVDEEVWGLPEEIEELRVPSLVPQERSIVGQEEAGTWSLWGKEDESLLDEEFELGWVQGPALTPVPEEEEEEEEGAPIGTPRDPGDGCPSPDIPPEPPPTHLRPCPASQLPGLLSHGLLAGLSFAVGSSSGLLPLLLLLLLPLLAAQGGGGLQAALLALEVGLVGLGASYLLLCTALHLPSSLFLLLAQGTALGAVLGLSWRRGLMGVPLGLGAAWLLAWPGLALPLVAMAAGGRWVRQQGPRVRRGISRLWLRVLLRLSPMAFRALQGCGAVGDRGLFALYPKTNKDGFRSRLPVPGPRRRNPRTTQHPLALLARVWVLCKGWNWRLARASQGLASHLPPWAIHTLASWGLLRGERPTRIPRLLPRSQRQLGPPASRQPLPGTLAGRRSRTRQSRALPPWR
Sequence of Receptor-interacting serine/threonine-protein kinase 2 (Homo sapiens) (O43353 whole entry, the tested form may be a part): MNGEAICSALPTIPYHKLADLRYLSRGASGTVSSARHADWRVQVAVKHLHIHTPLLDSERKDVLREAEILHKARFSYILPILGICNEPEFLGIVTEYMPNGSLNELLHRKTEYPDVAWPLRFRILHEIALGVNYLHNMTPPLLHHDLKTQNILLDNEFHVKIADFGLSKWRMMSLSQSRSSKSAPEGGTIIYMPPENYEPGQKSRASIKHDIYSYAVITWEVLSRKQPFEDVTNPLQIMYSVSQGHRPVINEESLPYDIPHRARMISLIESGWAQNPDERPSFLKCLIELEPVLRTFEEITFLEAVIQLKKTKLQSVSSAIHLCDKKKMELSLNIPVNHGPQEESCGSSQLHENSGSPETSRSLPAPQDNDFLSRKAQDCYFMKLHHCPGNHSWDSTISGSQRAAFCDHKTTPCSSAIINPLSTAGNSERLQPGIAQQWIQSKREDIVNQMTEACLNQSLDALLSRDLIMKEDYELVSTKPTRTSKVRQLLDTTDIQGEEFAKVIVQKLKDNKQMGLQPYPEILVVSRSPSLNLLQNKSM
Sequence of Cyclin-dependent kinase-like 2 (Homo sapiens) (Q92772 whole entry, the tested form may be a part): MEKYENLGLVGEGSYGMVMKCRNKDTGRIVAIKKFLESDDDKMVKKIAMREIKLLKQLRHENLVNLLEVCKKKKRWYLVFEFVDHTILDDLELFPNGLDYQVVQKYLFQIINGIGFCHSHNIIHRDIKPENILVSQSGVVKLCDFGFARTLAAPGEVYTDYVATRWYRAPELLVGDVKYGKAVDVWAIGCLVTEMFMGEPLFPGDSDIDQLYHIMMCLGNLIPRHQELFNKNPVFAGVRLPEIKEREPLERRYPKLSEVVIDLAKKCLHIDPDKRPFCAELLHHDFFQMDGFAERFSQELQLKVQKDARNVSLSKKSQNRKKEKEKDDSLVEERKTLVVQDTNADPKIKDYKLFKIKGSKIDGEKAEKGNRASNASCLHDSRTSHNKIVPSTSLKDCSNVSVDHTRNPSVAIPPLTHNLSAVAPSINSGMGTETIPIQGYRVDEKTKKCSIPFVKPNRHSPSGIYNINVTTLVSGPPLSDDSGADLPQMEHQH
Sequence of Tyrosine-protein kinase Fes/Fps (Homo sapiens) (P07332 whole entry, the tested form may be a part): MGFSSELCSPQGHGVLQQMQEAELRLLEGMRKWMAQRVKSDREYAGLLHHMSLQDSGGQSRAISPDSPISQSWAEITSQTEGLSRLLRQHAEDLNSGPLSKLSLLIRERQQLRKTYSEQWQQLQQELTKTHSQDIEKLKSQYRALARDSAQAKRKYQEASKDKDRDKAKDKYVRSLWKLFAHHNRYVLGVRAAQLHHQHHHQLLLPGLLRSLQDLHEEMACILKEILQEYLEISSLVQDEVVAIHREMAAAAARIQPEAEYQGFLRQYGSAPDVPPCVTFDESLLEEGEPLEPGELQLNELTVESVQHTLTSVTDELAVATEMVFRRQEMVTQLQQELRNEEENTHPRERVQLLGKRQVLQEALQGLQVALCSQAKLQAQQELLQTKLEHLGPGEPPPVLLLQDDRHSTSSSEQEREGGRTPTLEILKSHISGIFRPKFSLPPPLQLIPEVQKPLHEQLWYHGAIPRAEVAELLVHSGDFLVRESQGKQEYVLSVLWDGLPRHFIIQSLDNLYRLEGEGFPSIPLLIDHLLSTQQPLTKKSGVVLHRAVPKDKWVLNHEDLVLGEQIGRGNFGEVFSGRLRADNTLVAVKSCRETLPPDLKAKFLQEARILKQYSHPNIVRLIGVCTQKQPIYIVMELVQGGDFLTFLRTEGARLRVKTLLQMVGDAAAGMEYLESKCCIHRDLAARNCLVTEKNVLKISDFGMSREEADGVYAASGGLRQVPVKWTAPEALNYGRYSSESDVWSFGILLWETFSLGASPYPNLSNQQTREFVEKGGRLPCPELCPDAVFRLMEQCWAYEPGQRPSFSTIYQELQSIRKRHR
Sequence of Epidermal growth factor receptor (Homo sapiens), P00533 [UNDEFINED MUTATION] (P00533 whole entry, looked up, stated change not applied, the tested form may be a part): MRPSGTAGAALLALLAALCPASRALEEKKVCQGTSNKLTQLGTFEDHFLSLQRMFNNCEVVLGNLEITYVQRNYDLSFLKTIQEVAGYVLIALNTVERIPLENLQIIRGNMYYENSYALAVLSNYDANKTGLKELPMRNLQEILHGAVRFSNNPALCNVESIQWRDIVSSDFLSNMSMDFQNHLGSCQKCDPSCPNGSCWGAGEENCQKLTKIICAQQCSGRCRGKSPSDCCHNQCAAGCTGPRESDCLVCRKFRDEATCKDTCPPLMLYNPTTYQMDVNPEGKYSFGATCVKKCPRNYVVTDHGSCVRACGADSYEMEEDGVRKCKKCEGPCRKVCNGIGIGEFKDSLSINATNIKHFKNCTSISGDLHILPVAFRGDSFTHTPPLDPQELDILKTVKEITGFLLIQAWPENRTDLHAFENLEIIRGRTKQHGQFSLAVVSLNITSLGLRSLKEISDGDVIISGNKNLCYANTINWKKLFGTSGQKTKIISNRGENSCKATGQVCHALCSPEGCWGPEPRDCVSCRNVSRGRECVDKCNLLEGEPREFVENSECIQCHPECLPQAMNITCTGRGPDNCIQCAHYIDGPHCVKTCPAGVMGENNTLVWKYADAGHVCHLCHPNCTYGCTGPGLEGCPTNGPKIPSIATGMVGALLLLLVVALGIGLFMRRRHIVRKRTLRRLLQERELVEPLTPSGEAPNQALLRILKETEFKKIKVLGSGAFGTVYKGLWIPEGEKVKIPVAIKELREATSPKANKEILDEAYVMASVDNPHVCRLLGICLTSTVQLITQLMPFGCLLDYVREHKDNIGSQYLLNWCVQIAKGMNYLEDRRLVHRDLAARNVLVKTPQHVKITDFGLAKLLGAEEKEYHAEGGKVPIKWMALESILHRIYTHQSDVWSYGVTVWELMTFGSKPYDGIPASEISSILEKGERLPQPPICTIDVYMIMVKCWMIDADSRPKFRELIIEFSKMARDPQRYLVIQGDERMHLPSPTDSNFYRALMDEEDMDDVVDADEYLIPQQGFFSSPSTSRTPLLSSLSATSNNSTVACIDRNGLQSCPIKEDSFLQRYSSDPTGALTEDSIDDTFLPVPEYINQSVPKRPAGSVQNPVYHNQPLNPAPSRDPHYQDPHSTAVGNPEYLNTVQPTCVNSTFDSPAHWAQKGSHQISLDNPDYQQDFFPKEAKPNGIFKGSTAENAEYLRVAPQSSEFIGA

In the case of `CC(C)Nc1sc(C(=O)c2ccc(Cl)s2)c(N)c1C#N`, the Activity in [1] was found to be 100%; in [2], 62%; in assay [3], 92%; in assay [4], 90%; in assay [5], 80%; in assay [6] it was 60%. For the same compound, the Activity is 80% in assay [7]; 98% in assay [8]; 91% in [9]; 24% in assay [10]; 89% in assay [11]; 64% in assay [12]. Besides, the Activity came to 100% in [13]; 100% in assay [14]; 85% in assay [15]; 100% in assay [16]; 82% in [17]; 90% in assay [18]. The Activity came out at 96% in [19]; 100% in [20]; 72% in [21]; 100% in assay [22]; 100% in assay [23]; 100% in assay [24].
